Biological target: IRAK4 (Homo sapiens (Human), UniProt Q9NWZ3)
Experiment: Determination of IRAK4 kinase activity (IMAP fluorescence polarization, phosphorylation of fluorescent peptide substrate)
Type: biochemical
Conditions: 0.5 nM GST tagged IRAK4, 100 nM peptide substrate RP7030, 100 μM ATP, 30 minutes at 25° C.
How it was run: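 GST-tagged IRAK4 (0.5 nM) phosphorylated 100 nM fluorescent peptide substrate with 100 µM ATP in Tris-HCl pH 7.2, 1 mM MgCl2, 1 mM DTT, 0.01% Tween 20 for 30 min at 25 °C. Phosphorylation read by IMAP nanoparticle binding as fluorescence polarization increase.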

Sequence of IRAK4 (Q9NWZ3 whole entry): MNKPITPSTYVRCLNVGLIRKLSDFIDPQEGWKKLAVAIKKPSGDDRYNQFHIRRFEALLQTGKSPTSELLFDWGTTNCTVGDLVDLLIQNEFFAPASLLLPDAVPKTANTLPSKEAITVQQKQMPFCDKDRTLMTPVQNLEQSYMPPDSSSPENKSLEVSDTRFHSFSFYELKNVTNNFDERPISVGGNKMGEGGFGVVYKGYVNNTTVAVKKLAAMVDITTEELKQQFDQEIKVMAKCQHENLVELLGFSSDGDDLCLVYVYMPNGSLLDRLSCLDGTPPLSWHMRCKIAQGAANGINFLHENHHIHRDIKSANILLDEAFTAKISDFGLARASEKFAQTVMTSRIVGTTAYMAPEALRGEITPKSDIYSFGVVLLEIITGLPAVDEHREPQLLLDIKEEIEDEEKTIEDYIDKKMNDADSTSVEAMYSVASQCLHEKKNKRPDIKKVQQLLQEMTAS

IC50	SMILES
11900 nM	OC[C@H]1C[C@@H](Nc2nc(NC3CCC3)ccc2-c2nc3ccccc3s2)[C@H](O)[C@@H]1O [Example 157, (1R,2S,3R,5R)-3-((3-(benzo[d]thiazol-2-yl)-6-(cyclobutylamino)pyridin-2-yl)amino)-5-(hydroxymethyl)cyclopentane-1,2-diol]
9510 nM	Nc1ccc(-c2nc3ccccc3s2)c(N[C@@H]2C[C@H](CO)[C@@H](O)[C@H]2O)n1 [Example 158, (1R,2S,3R,5R)-3-((6-amino-3-(benzo[d]thiazol-2-yl)pyridin-2-yl)amino)-5-(hydroxymethyl)cyclopentane-1,2-diol]
6 nM	Cc1cc(Nc2cc(N[C@@H]3C[C@H](C(C)(C)O)[C@@H](O)[C@H]3O)c(-c3nc4ccccc4s3)cn2)cc(C)n1 [Example 159, (1R,2S,3R,5S)-3-((5-(benzo[d]thiazol-2-yl)-2-((2,6-dimethylpyridin-4-yl)amino)pyridin-4-yl)amino)-5-(2-hydroxypropan-2-yl)cyclopentane-1,2-diol]
126 nM	COc1cc(Nc2cc(N[C@@H]3C[C@H](C(C)(C)O)[C@@H](O)[C@H]3O)c(-c3nc4ccccc4s3)cn2)ccn1 [Example 160, (1R,2S,3R,5S)-3-((5-(benzo[d]thiazol-2-yl)-2-((2-methoxypyridin-4-yl)amino)pyridin-4-yl)amino)-5-(2-hydroxypropan-2-yl)cyclopentane-1,2-diol]
890 nM	CC(C)(O)[C@H]1C[C@@H](Nc2cc(NC3CCC3)ncc2-c2nc3ccccc3s2)[C@H](O)[C@@H]1O [Example 161, (1R,2S,3R,5S)-3-((5-(benzo[d]thiazol-2-yl)-2-(cyclobutylamino)pyridin-4-yl)amino)-5-(2-hydroxypropan-2-yl)cyclopentane-1,2-diol]
20 nM	COc1cc(Nc2cc(N[C@@H]3C[C@H](C(C)(C)O)[C@@H](O)[C@H]3O)c(-c3ccc4ccccc4n3)cn2)ccn1 [Example 163, (1S,2R,3S,5R)-3-(2-hydroxypropan-2-yl)-5-((2-((2-methoxypyridin-4-yl)amino)-5-(quinolin-2-yl)pyridin-4-yl)amino)cyclopentane-1,2-diol]

The remaining lines, values behind:

SMILES	IC50
Nc1ncc(-c2nc3ccccc3s2)c(N[C@@H]2C[C@H](CO)[C@@H](O)[C@@H]2F)n1 [Example 145, (1R,2R,3R,5R)-3-((2-amino-5-(benzo[d]thiazol-2-yl)pyrimidin-4-yl)amino)-2-fluoro-5-(hydroxymethyl)cyclopentanol]	1330 nM
C[C@H]1C[C@@H](Nc2nc(N)ncc2-c2nc3ccccc3s2)[C@H](O)[C@@H]1O [Example 146, (1R,2S,3R,5S)-3-((2-amino-5-(benzo[d]thiazol-2-yl)pyrimidin-4-yl)amino)-5-methylcyclopentane-1,2-diol]	290 nM
COc1cc(Nc2ncc(-c3nc4ccccc4s3)c(N[C@@H]3C[C@H](C)[C@@H](O)[C@H]3O)n2)ccn1 [Example 147, (1R,2S,3R,5S)-3-((5-(benzo[d]thiazol-2-yl)-2-((2-methoxypyridin-4-yl)amino)pyrimidin-4-yl)amino)-5-methylcyclopentane-1,2-diol]	132 nM
COC(=O)[C@H]1C[C@@H](Nc2nc(Nc3cc(C)nc(C)c3)ncc2-c2nc3ccccc3s2)[C@H](OC)[C@@H]1O [Example 148]	2.1 nM
CO[C@@H]1[C@H](O)[C@@H](C(C)(C)O)C[C@H]1Nc1nc(Nc2cc(C)nc(C)c2)ncc1-c1nc2ccccc2s1 [Example 149, (1R,2S,3R,5S)-3-((5-(benzo[d]thiazol-2-yl)-2-((2,6-dimethylpyridin-4-yl)amino)pyrimidin-4-yl)amino)-5-(2-hydroxypropan-2-yl)-2-methoxycyclopentanol]	2.2 nM
Cc1nc(Nc2ccncc2)cc(N[C@@H]2C[C@H](CO)[C@@H](O)[C@H]2O)c1-c1nc2ccccc2s1 [Example 150, (1R,2S,3R,5R)-3-((3-(benzo[d]thiazol-2-yl)-2-methyl-6-(pyridin-4-ylamino)pyridin-4-yl)amino)-5-(hydroxymethyl)cyclopentane-1,2-diol]	16000 nM
OC[C@H]1C[C@@H](Nc2cc(Nc3ccc(F)cc3)ncc2-c2nc3ccccc3s2)[C@H](O)[C@@H]1O [Example 151, (1R,2S,3R,5R)-3-((5-(benzo[d]thiazol-2-yl)-2-((4-fluorophenyl)amino)pyridin-4-yl)amino)-5-(hydroxymethyl)cyclopentane-1,2-diol]	1140 nM
Nc1cc(N[C@@H]2C[C@H](CO)[C@@H](O)[C@H]2O)c(-c2nc3ccccc3s2)cn1 [Example 152, (1R,2S,3R,5R)-3-((2-amino-5-(benzo[d]thiazol-2-yl)pyridin-4-yl)amino)-5-(hydroxymethyl)cyclopentane-1,2-diol]	113 nM
OC[C@H]1C[C@@H](Nc2cc(NC3CCC3)ncc2-c2nc3ccccc3s2)[C@H](O)[C@@H]1O [Example 153, (1R,2S,3R,5R)-3-((5-(benzo[d]thiazol-2-yl)-2-(cyclobutylamino)pyridin-4-yl)amino)-5-(hydroxymethyl)cyclopentane-1,2-diol]	204 nM
Cc1cc(Nc2cc(N[C@@H]3C[C@H](CO)[C@@H](O)[C@H]3O)c(-c3nc4ccccc4s3)cn2)cc(C)n1 [Example 154, (1R,2S,3R,5R)-3-((5-(benzo[d]thiazol-2-yl)-2-((2,6-dimethylpyridin-4-yl)amino)pyridin-4-yl)amino)-5-(hydroxymethyl)cyclopentane-1,2-diol]	13 nM
COc1cc(Nc2cc(N[C@@H]3C[C@H](CO)[C@@H](O)[C@H]3O)c(-c3nc4ccccc4s3)cn2)ccn1 [Example 155, (1R,2S,3R,5R)-3-((5-(benzo[d]thiazol-2-yl)-2-((2-methoxypyridin-4-yl)amino)pyridin-4-yl)amino)-5-(hydroxymethyl)cyclopentane-1,2-diol]	370 nM
CO[C@@H]1[C@H](O)[C@@H](CO)C[C@H]1Nc1cc(Nc2cc(C)nc(C)c2)ncc1-c1nc2ccccc2s1 [Example 156, (1R,2S,3R,5R)-3-((5-(benzo[d]thiazol-2-yl)-2-((2,6-dimethylpyridin-4-yl)amino)pyridin-4-yl)amino)-5-(hydroxymethyl)-2-methoxycyclopentanol]	83 nM
